According to patent US20140294856A1, “COMBINATION TREATMENT COMPRISING A HDAC6 INHIBITOR AND AN AKT INHIBITOR” (priority 2011, published 2014):
pIC50: −log10 of the molar value. Where two headings read alike, the source gives them in different places.

Legend:
HCT116 cells [1] = experiment: Combination studies, SRB assay, combination index (CalcuSyn); format: cell-based, human
HCT116 cells [2] = experiment: Phospho-AKT levels by western blotting; format: cell-based, human; settings: for pIC50: Homo sapiens, HCT-116
HCT116 tumours = experiment: Phospho-AKT levels in HCT116 tumours; format: in vivo, mice; settings: single injection 25 mg/kg
[3] = tested on: HCT116 human colon cancer xenograft; settings: BEZ-235 alone 20 mg/kg/d
[4] = Cytotoxicity of compounds of the invention (data not shown); format: cell-based
Source text: HDAC-C1B also appears to be a promising drug candidate.

HCT116 cells [5] = experiment: Acetylation biomarkers by western blotting (with washout); format: cell-based, human
Description: FIG. 1. HDAC-C1A irreversible activity. A. […] inhibitory activity of HDAC-C1A was tested using HeLa nuclear extracts and compared to the negative (reversible) control HDAC-C1B. B Growth inhibitory effect of the different compounds in HCT-116 cells at indicated time and compared to growth inhibitory after 72 hours of incubation.
HSP90 protein expression was not altered (FIG. 2).

HCT116 cells [6] = experiment: Acetylated PTEN and PTEN expression; format: cell-based, human
Description: FIG. 12. HDAC-C1A treatment is associated with an increase of phopsho-AKT that can be reversed by PI3K/AKT/mTOR inhibitors. […] Similarly, Phospho-Pras 40 seems to increase following treatment with HDAC-C1A. Densitometry data could reinforce this statement (ratio between the total form and the Phospho form of Pras40 that decreases at 24 hours). […] No difference could be seen in endometrial cancer cell line, […]. C. […] E. BEZ-235 can fully reverse the increase of Phospho-AKT mediated by HDAC-C1A in HCT-116 cells. BEZ-235 and HDAC-C1A were co-incubated at the indicated time and concentrations.
FIG. 17. A. Dose and time impact of Tubastatin A on acetylated form of tubulin and histones H3 and H4 and on phospho-AKT levels that could be reversed with BEZ-235 in HCT-116 cells. […] HCT116 were immunoprecipitation with PTEN and stained with HDAC1 or HDAC6, immunoprecipitation with HDAC6 and stained with PTEN. No HDAC1 could have been detected in contrast with HDAC6. There was no effect of the different inhibitors on the different protein levels.
PTEN protein expression was not altered. In vivo, on the gene array, the mRNA levels of PTEN were not altered in HCT116 xenograft model following treatment with HDAC-C1A after 1 and 14 days when compared with vehicle treated group (FIG. 7).
We have shown that HDAC-C1A is associated with increased acetylation of α-tubulin, acetyl HSP90 and acetyl PTEN with only a minor effect on the regulation of the genes (less than 0.7% of the genes have been de-regulated after 14 days of treatment in vivo). We believe that the acetylation of PTEN, via the inhibition of HDAC6, leads to an increase of P-AKT. […] No effect of BEZ235 could be seen on the acetylated status of α-tubulin and histones H3 and H4.

in vitro = settings: human, Caco-2
A2780 cells = experiment: Impact of glutathione co-incubation on survival; settings: compound 1 μM
MRP1 = MRP1 (Homo sapiens, UniProt P33527); experiment: Impact of MRP1 on cytotoxicity, MK-571 pre-treatment in A549 cells
MRP1, sequence (P33527 whole entry): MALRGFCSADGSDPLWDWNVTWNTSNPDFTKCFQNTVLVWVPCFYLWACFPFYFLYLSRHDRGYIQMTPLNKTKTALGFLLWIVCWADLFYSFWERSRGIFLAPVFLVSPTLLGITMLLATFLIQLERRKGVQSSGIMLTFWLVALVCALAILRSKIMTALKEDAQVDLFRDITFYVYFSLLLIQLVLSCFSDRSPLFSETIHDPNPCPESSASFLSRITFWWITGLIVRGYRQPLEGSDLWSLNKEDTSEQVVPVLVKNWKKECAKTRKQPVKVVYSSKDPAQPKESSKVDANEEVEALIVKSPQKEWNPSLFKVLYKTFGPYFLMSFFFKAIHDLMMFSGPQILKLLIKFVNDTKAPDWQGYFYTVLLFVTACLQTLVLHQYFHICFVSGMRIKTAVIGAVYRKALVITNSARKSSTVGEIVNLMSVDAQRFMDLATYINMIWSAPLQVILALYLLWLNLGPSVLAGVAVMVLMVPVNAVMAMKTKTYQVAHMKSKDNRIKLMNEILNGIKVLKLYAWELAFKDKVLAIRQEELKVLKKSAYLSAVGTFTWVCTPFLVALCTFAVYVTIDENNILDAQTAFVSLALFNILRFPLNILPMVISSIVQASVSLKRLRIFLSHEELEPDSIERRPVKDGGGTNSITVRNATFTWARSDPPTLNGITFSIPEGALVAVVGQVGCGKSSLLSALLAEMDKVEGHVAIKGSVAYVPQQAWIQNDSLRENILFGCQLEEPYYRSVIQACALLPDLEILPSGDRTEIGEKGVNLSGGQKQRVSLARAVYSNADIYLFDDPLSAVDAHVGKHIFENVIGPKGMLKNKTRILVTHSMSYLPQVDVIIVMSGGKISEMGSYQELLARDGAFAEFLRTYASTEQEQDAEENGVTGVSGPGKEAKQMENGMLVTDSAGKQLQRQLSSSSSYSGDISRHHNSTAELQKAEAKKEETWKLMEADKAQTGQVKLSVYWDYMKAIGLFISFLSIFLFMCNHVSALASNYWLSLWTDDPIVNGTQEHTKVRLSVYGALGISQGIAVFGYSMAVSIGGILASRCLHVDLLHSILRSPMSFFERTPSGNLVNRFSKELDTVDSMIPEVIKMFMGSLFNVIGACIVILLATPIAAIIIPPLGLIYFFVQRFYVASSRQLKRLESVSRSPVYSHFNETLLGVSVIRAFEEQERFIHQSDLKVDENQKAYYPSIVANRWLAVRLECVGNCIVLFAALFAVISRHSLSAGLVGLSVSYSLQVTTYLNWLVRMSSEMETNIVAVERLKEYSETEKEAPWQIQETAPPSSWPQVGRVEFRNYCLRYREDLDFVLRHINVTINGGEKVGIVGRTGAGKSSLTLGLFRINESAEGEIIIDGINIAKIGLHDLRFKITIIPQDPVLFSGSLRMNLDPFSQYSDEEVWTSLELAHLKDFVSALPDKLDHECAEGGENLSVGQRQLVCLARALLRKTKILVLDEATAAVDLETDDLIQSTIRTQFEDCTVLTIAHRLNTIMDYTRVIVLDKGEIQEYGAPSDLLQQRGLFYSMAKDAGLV
Description: The impact of ABC transporters on the cytotoxicity of HDAC-C1A was assessed using cell lines with differential expression of the ABC transporters and by using inhibitors.

A549 cells = experiment: Impact of BSO (GSH depletion) on growth inhibition, SRB assay; format: cell-based; settings: 10 μM BSO for 24 hours
[7] = tested on: CHO cells deficient in DNA repair; experiment: Growth inhibition in cell lines deficient in DNA repair machinery; format: cell-based
ABCG2 = target: T1, ABCG2 (Homo sapiens, UniProt Q9UNQ0)
T1 sequence (Q9UNQ0 1-655): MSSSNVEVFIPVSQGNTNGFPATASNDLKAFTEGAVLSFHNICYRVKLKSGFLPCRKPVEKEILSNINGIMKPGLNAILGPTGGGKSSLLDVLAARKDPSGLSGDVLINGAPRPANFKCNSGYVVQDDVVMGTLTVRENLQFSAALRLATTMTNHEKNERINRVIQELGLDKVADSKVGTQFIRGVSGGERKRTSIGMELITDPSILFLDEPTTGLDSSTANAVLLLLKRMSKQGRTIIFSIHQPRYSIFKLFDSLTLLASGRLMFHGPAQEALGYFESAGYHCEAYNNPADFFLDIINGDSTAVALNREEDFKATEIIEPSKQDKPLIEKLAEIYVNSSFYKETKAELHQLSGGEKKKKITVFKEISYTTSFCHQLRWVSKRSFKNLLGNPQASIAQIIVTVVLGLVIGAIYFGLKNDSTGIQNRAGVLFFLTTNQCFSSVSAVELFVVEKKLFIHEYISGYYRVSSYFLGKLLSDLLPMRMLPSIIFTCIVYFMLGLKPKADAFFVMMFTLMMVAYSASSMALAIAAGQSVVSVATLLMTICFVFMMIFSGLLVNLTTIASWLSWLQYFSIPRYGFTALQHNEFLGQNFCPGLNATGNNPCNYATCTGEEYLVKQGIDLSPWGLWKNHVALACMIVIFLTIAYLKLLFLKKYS

P-gp = P-gp (Homo sapiens, UniProt P08183); settings: mouse
P-gp, sequence (P08183 whole entry): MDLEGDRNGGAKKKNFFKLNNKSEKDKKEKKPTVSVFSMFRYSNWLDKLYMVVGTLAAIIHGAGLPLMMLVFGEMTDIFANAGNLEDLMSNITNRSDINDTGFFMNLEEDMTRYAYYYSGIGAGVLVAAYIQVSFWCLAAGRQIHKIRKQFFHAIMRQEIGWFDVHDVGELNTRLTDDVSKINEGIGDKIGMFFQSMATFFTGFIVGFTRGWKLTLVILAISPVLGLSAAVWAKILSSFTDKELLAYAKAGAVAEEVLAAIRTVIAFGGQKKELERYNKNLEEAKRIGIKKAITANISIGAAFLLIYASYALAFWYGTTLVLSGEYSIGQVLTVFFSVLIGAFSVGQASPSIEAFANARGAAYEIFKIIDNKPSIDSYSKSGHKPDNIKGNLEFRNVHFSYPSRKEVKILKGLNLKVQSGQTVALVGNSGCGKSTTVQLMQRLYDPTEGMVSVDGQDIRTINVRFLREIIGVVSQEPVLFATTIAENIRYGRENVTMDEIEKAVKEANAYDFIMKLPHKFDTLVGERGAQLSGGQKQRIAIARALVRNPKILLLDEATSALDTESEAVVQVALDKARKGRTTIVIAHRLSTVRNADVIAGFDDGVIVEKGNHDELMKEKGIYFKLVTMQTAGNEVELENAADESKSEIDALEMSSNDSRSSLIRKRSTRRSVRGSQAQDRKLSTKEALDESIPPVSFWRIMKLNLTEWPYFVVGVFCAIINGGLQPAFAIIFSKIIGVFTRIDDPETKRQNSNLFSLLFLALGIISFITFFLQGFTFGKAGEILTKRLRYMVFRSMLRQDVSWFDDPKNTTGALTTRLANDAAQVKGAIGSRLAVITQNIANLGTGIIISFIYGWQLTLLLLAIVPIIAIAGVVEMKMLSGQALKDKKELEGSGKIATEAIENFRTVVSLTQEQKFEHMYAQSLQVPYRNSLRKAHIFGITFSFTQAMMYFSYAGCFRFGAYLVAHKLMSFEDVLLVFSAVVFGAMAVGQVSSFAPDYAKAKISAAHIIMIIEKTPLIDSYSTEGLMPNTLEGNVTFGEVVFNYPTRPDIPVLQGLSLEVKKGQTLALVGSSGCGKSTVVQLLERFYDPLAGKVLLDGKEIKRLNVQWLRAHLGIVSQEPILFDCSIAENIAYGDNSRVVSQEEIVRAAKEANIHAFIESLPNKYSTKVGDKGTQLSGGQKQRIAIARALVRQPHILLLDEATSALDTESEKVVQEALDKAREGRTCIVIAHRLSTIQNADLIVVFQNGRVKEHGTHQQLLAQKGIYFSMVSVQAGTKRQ

[8] = homologous recombination repair

Compound: O=c1[nH]cc(F)c(=O)[nH]1 [5FU]
- combination effect with HDAC-C1A on growth inhibition (HCT116 cells [1]; HCT116, 72 hours): additive effect

Compound: CN(C)CC[C@H](CSc1ccccc1)Nc1ccc(S(=O)(=O)NC(=O)c2ccc(N3CCN(Cc4ccccc4-c4ccc(Cl)cc4)CC3)cc2)cc1[N+](=O)[O-] [ABT-737]
- combination effect with HDAC-C1A on growth inhibition (HCT116 cells [1]; HCT116, 72 hours): Synergistic effect

Compound: Cn1c(=O)n(-c2ccc(C(C)(C)C#N)cc2)c2c3cc(-c4cnc5ccccc5c4)ccc3ncc21 [BEZ-235]
- combination effect with HDAC-C1A on growth inhibition (HCT116 cells [1]; HCT116, 72 hours): Synergistic effect
- P-AKT levels, single agent (HCT116 cells [2]): dose dependent decrease
- pIC50 (HCT116 cells [2]; 4 hours treatment, read-out: IC50 for inhibition of P-AKT): 8.00
- pIC50 (HCT116 cells [2]; added to Tubastatin A, read-out: IC50 for reversal of Tubastatin A-induced P-AKT): 8.00
- pIC50 (HCT116 cells [2]; combined with 10 μM HDAC-C1A, read-out: IC50 for P-AKT when combined with HDAC-C1A): 7.30
- effect on acetylated status of α-tubulin and histones H3 and H4 (HCT116 cells [2]; added to Tubastatin A): No effect
- reversal of the increase of Phospho-AKT mediated by HDAC-C1A (HCT116 cells [2]; co-incubated with HDAC-C1A): fully reverse
- P-AKT in tumours (HCT116 tumours; 2 hours after treatment): Persistent inhibition
- P-AKT in tumours (HCT116 tumours; by 30 minutes): rapid down-regulation
- P-AKT in tumours (HCT116 tumours; from 6 hours post treatment): partial recovery to basal levels
- TGD2x [3]: 3.4 ± 1.9 days
- TGI [3]: 21%

Compound: CCN(CC)c1ccc(S(=O)(=O)Nc2ccc(/C=C(C)/C=C/C(=O)NO)cc2)cc1 [HDAC-C1B]
- cytotoxic potency relative to HDAC-C1A [4]: approximately 1.5 fold

Compound: COc1ccc(C2=N[C@@H](c3ccc(Cl)cc3)[C@@H](c3ccc(Cl)cc3)N2C(=O)N2CCNC(=O)C2)c(OC(C)C)c1 [Nutlin-3]
- combination effect with HDAC-C1A on growth inhibition (HCT116 cells [1]; HCT116, 72 hours): additive effect

Compound: O=C(CCCCCCC(=O)Nc1ccccc1)NO [SAHA, suberanoyl hydroxamic acid, reference compound]
- acetylation markers at low concentration and early time point (HCT116 cells [5]; 1 μM and 4 hours): opposite
- acetylation of histone H3, H4 and α-tubulin after washout (HCT116 cells [5]; treatment 4 hours, then washout): lost by 4 h
- concentration of LY-294002 needed to synergise (HCT116 cells [1]): greater than 4 μM
- combination effect with rapamycin at ED50 (HCT116 cells [1]; concentrations below 7.5 μM): antagonistic effect
- effect on P-AKT (HCT116 cells [2]; 10 μM): no effect
- acetyl form of PTEN (HCT116 cells [6]; 4 h and 24 h, 1 μM and 10 μM): no effect
- Papp A→B (in vitro): 14 ×10⁻⁶ cm/s
- effect of GSH on cytotoxicity (A2780 cells): antagonistic effect
- substrate of MRP1 (MRP1): non-substrates

Compound: CN1CCc2c(c3ccccc3n2Cc2ccc(C(=O)NO)cc2)C1 [Tubastatin A]
- concentration of LY-294002 needed to synergise (HCT116 cells [1]): 0.1 µM
- combination effect with inhibitors of the PI3K/AKT/mTOR pathway (HCT116 cells [1]; HCT116, 72 hours): synergises as well
- P-AKT (HCT116 cells [2]; Tubastatin A alone): time dependent increase
- acetylated form of PTEN (HCT116 cells [6]; 24 hours of incubation): dose dependent increase

Compound: CC(C)C[C@H](NC(=O)[C@H](Cc1ccccc1)NC(=O)c1cnccn1)B(O)O [bortezomib]
- combination effect with HDAC-C1A on growth inhibition (HCT116 cells [1]; HCT116, 72 hours): Synergistic effect

Compound: O=C(O)CCCc1ccc(N(CCCl)CCCl)cc1 [chlorambucil, reference compound]
- impact of BSO on growth inhibition (GI50 ratio) (A549 cells): 8.5
- sensitivity (GI50 ratio) of cells deficient in XRCC3 vs proficient [7, 8]: 7.8
- sensitivity (GI50 ratio, fold) of cells deficient in XRCC2 vs proficient [7, 8]: > 100
- sensitivity (GI50 ratio, fold) of cells deficient in XRCC5 vs proficient ([7]; non homologous end joining): > 100
- sensitivity (GI50 ratio) of cells deficient in ERCC1 vs proficient ([7]; nucleotide excision repair): > 100

Compound: O=C1c2c(O)ccc(O)c2C(=O)c2c(NCCNCCO)ccc(NCCNCCO)c21 [mitoxantrone]
- fold resistance (GI50 ratio) MCF7-MX vs parental MCF7 (ABCG2): 120 fold
- reversal of resistance by FTC in MCF7-MX cells (ABCG2): 70 fold

Compound: CC[C@]1(O)C[C@@H]2CN(CCc3c([nH]c4ccccc34)[C@@](C(=O)OC)(c3cc4c(cc3OC)N(C)[C@H]3[C@@](O)(C(=O)OC)[C@H](OC(C)=O)[C@]5(CC)C=CCN6CC[C@]43[C@@H]65)C2)C1 [vinblastine]
- fold resistance (GI50 ratio) P-gp over-expressing 3T3 vs parental (P-gp): > 100 fold
